Data reported in US20060281789A1, “Protein kinase inhibitors” (KYOWA HAKKO KOGYO CO., LTD, priority 2003, published 2006).
Where a name gives a salt, the structure may show the parent alone.

What was measured:
human Flt-3 = molecular target: T1, human Flt-3 (Homo sapiens, UniProt P36888); assay: Inhibitory activity on Flt-3 (GST-fused kinase, time-resolved fluoroimmunoassay); format: biochemical; conditions: tested compound 10 μmol/L, ATP 10 μmol/L, sixty minutes
T1 construct: fused to the N-terminus of the intracellular domain (583-953 amino acids) thereof; made in house; host or cells: insect cells (baculovirus)
T1 sequence (P36888 583-953): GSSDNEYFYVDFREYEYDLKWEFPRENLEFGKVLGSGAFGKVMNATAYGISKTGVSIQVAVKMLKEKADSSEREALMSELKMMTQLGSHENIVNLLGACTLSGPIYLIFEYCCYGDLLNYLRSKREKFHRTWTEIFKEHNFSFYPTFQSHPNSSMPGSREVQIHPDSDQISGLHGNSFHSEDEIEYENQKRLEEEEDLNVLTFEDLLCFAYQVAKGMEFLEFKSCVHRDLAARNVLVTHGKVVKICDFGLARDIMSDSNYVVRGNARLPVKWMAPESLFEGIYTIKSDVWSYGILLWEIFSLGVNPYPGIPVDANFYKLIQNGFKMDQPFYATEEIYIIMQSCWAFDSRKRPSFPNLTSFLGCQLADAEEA
Method: Flt-3 inhibitory activities were determined in the following manner.
Flt-3 was prepared by allowing baculovirus to infect insect cells, which baculovirus expresses a protein comprising human Flt-3 with […]. […] Separately was prepared a solution containing, at final concentrations, GST-fused Flt-3 (100 μg/L), Tris-Cl (pH 7.5) (20 mmol/L), β-glycerophosphate (5 mmol/L), dithiothreitol (DTT) (1 mmol/L), Na3VO4 (0.1 mmol/L), MgCl2 (10 mmol/L), MnCl2 (10 mmol/L), ATP (10 μmol/L), bovine serum albumin (BSA) (0.1%), DMSO (0.1%), and a tested compound (10 μmol/L). The solution (each 60 μL) was placed into the wells of the plate for the determination of kinase reaction, followed by enzymatic reaction at room temperature for sixty minutes. After reacting, the reaction was stopped by the addition of 50 μL of a 25 mmol/L aqueous solution of ethylenediaminetetraacetic acid. […] The relative activity (%) of a well in which the enzyme and tested compound were added was determined by calculation with the value in a well to which the tested compound was not added being 100% and the value in a well to which the enzyme and the tested compound were not added being 0%. The Flt-3 inhibitory activity (%) of the tested compound was determined by subtracting the relative activity (%) from 100.

MV-4-11 = assay: Cytostatic activity on human acute myeloid leukemia cell line MV-4-11 (WST-1); format: cell-based; conditions: MV4-11, 3.16 μmol/L, 72 hours, read-out: MV-4-11 (%) cytostatic rate
Method: (§1) The cytostatic rates of a test compound on human acute myeloid leukemia cell lines MV-4-11 and ML-1, and human chronic myeloid leukemia cell line K562 were determined in the following manner.
(§2) Each cell was cultured using Roswell Park Memorial Institute's Medium (RPMI) 1640 (Gibco, Catalog No. 11875-093) containing 10% fetal bovine serum (Gibco, Catalogue No. 10437-028) and penicillin/streptomycin (1:1) (Gibco, Catalogue No. 15140-122). Each 80 μL of the MV-4-11 cell having a concentration of 7.5×10^4 cells/mL (or the ML-1 cell or K562 cell having a concentration of 2.5×10^4 cells/mL) was inoculated to wells of a TC MICROWELL 96U plate (Nalge Nunc International, Catalogue No. 163320) and was cultured in a 5% carbon dioxide gas incubator at 37° C. for 4 hours. As a blank, only RPMI medium (80 μL) was added to a well. Each 20 μL of a solution of the test compound in dimethyl sulfoxide (DMSO) which was prepared to make the final concentration to 3.16 μmol/L or 10 μmol/L, was added to the MV-4-11 cell, ML-1 cell and K562 cell, respectively. Each 20 μL of DMSO was added to the control well and the blank well to a final concentration of 0.1%. After adding the test compound, the cells were incubated in a 5% carbon dioxide gas incubator at 37° C. for 72 hours. After adding 20 μL of WST-1 reagent {4-[3-(4-iodophenyl)-2-(4-nitrophenyl)-2H-5-tetrazolio]-1,3-benzene disulfonate sodium salt) (Roche Diagnostics K.K., Catalogue No. 1644807) diluted to 50% with RPMI medium, the cells were further incubated at 37° C. for 2 hours. Then, the absorbances at 450 nm (reference wavelength: 690 nm) were determined with a microplate spectrophotometer SPECTRA max 340PC (Molecular Devices Corporation). The relative growth (%) of a well to which the test compound had been added was determined while setting the absorbance of a well to which not the test compound but DMSO alone had been added (control) at 100% and that of a well containing RPMI medium alone at 0%. The cytostatic rate (%) of the test compound was determined by subtracting the calculated relative growth from 100.

K562 = assay: Cytostatic activity on human chronic myeloid leukemia cell line K562 (WST-1); format: cell-based; conditions: 10 μmol/L, 72 hours, read-out: K562 (%) cytostatic rate
Method: as §1, §2

ML-1 = assay: Cytostatic activity on human acute myeloid leukemia cell line ML-1 (WST-1); format: cell-based; conditions: ML1, 3.16 μmol/L, 72 hours, read-out: ML-1 (%) cytostatic rate
Method: as §1, §2

| Compound | inhibition at 10 µM (human Flt-3) [%] | also measured |
| --- | --- | --- |
| CN(C)CCOc1ccc(/C=C/c2n[nH]c3ccccc23)cc1 [Compound 2, (E)-3-(2-[4-(2-dimethylaminoethoxy)phenyl]vinyl}-1H-indazole hydrochloride] | 97.8 |  |
| CCOC(=O)COc1ccc(/C=C/c2n[nH]c3ccccc23)cc1 [Compound 3, ethyl (E)-4-[2-(1H-indazol-3-yl)vinyl]phenoxyacetate] |  | inhibition at 3.16 µM (MV-4-11): 37%; inhibition at 10 µM (K562): 14% |
| OCCOc1ccc(/C=C/c2n[nH]c3ccccc23)cc1 [Compound 4, (E)-3-{2-[4-(2-hydroxyethoxy)phenyl]vinyl}-1H-indazole] |  | inhibition at 3.16 µM (MV-4-11): 91%; inhibition at 3.16 µM (ML-1): 27%; inhibition at 10 µM (K562): 72% |
| CCN(CC)CCOc1ccc(/C=C/c2n[nH]c3ccccc23)cc1 [Compound 6, (E)-3-{2-[4-(2-diethylaminoethoxy)phenyl]vinyl}-1H-indazole hydrochloride] |  | inhibition at 3.16 µM (MV-4-11): 97%; inhibition at 3.16 µM (ML-1): 89%; inhibition at 10 µM (K562): 98% |
| CC(C)N(CCOc1ccc(/C=C/c2n[nH]c3ccccc23)cc1)C(C)C [Compound 7, (E)-3-{2-[4-(2-diisopropylaminoethoxy)phenyl]vinyl}-1H-indazole hydrochloride] |  | inhibition at 3.16 µM (MV-4-11): 97%; inhibition at 3.16 µM (ML-1): 89%; inhibition at 10 µM (K562): 93% |
| C(=C\c1n[nH]c2ccccc12)/c1ccc(OCCN2CCCCC2)cc1 [Compound 8, (E)-3-{2-[4-(2-piperidinoethoxy)phenyl]vinyl}-1H-indazole hydrochloride] |  | inhibition at 3.16 µM (MV-4-11): 97%; inhibition at 3.16 µM (ML-1): 90%; inhibition at 10 µM (K562): 94% |
| C(=C\c1n[nH]c2ccccc12)/c1ccc(OCCCN2CCCCC2)cc1 [Compound 9, (E)-3-{2-[4-(3-piperidinopropoxy)phenyl]vinyl}-1H-indazole hydrochloride] |  | inhibition at 3.16 µM (MV-4-11): 97%; inhibition at 3.16 µM (ML-1): 92%; inhibition at 10 µM (K562): 97% |
| COc1cc(/C=C/c2n[nH]c3ccccc23)ccc1OCCN1CCOCC1 [Compound 30, (E)-3-{2-[3-methoxy-4-(2-morpholinoethoxy)phenyl]vinyl}-1H-indazole hydrochloride] | 98.1 |  |
| Nc1cc(/C=C/c2n[nH]c3ccccc23)ccc1OCCN1CCOCC1 [Compound 38, (E)-3-{2-[3-amino-4-(2-morpholinoethoxy)phenyl]vinyl}-1H-indazole] | 99.2 |  |
| CS(=O)(=O)Nc1cc(/C=C/c2n[nH]c3ccccc23)ccc1OCCN1CCOCC1 [Compound 60, (E)-N-{5-[2-(1H-Indazol-3-yl)vinyl]-2-(2-morpholinoethoxy)phenyl}methanesulfonamide] | 90.2 |  |
| O=C(NCCN1CCOCC1)c1ccc(/C=C/c2n[nH]c3ccccc23)cc1 [Compound 61, (E)-N-(2-morpholinoethyl)-4-[2-(1H-indazol-3-yl)vinyl]benzamide] | 91 |  |
| CCN(CC)C(=O)c1ccc(/C=C/c2n[nH]c3ccccc23)cc1 [Compound 62, (E)-N,N-Diethyl-4-[2-(1H-indazol-3-yl)vinyl]benzamide hydrochloride] | 93.7 |  |
| CC(C)(C)OC(=O)N1CCN(C(=O)c2ccc(/C=C/c3n[nH]c4ccccc34)cc2)CC1 [Compound 63, (E)-4-{4-[2-(1H-indazol-3-yl)vinyl]benzoyl)piperazine-1-carboxylic acid 1,1-dimethylethylester] | 97.4 |  |
| O=C(c1ccc(/C=C/c2n[nH]c3ccccc23)cc1)N1CCNCC1 [Compound 64, (E)-1-{4-[2-(1H-indazol-3-yl)vinyl]benzoyl}piperazine] | 94.2 |  |
| O=CN1CCN(C(=O)c2ccc(/C=C/c3n[nH]c4ccccc34)cc2)CC1 [Compound 65, (E)-4-{4-[2-(1H-indazol-3-yl)vinyl]benzoyl}piperazine-1-carbaldehyde] | 94.4 |  |
| CCOC(=O)N1CCN(C(=O)c2ccc(/C=C/c3n[nH]c4ccccc34)cc2)CC1 [Compound 66, (E)-1-{4-[2-(1H-indazol-3-yl)vinyl]benzoyl}-4-ethoxycarbonylpiperazine] | 95.7 |  |
| O=C(c1ccncc1)N1CCN(C(=O)c2ccc(/C=C/c3n[nH]c4ccccc34)cc2)CC1 [Compound 67, (E)-1-{4-[2-(1H-indazol-3-yl)vinyl]benzoyl}-4-(isonicotinoyl)piperazine] | 96.4 |  |
| CCN(CC)CCNC(=O)c1ccc(/C=C/c2n[nH]c3ccccc23)cc1 [Compound 68, (E)-N-[2-(diethylamino)ethyl]-4-[2-(1H-indazol-3-yl)vinyl]benzamide] | 94.4 |  |
| COCC(=O)N1CCN(C(=O)c2ccc(/C=C/c3n[nH]c4ccccc34)cc2)CC1 [Compound 69, (E)-4-methoxyacetyl-1-{4-[2-(1H-indazol-3-yl)vinyl]benzoyl}piperazine] | 95.8 |  |
| O=C1CN(C(=O)c2ccc(/C=C/c3n[nH]c4ccccc34)cc2)CCN1 [Compound 70, (E)-4-{4-[2-(1H-indazol-3-yl)vinyl]benzoyl}piperadin-2-one] |  | Inhibitory activity on Flt-3 (%) (human Flt-3): 93.7% |
| NC1CCN(C(=O)c2ccc(/C=C/c3n[nH]c4ccccc34)cc2)C1 (centres unmarked) [Compound 71, (E)-1-{4-[2-(1H-indazol-3-yl)vinyl]benzoyl}-3-aminopyrrolidine dihydrochloride] | 95.2 |  |
| O=C(c1ccc(/C=C/c2n[nH]c3ccccc23)cc1)N1CCN(C(=O)[C@H]2CCNC2)CC1 [Compound 72, (S)-(E)-1-{4-[2-(1H-indazol-3-yl)vinyl]benzoyl}-4-(pyrrolidin-3-ylcarbonyl)piperazine dihydrochloride] | 95 |  |
| CC(C)(N)C(=O)N1CCN(C(=O)c2ccc(/C=C/c3n[nH]c4ccccc34)cc2)CC1.Cl.Cl [Compound 74, (E)-4-(2-amino-2-methylpropionyl)-1-{4-[2-(1H-indazol-3-yl)vinyl]benzoyl}piperazine dihydrochrolide] |  | Inhibitory activity on Flt-3 (%) (human Flt-3): 97.0% |
| CC(=O)N(C)CC(=O)N1CCN(C(=O)c2ccc(/C=C/c3n[nH]c4ccccc34)cc2)CC1 [Compound 75, (E)-4-(N-acetyl-N-methylaminoacetyl)-1-(4-[2-(1H-indazol-3-yl)vinyl]benzoyl}piperazine] | 95.1 |  |
| O=C(c1ccc(/C=C/c2n[nH]c3ccccc23)cc1)N1CCN(C(=O)[C@@H]2CCCN2)CC1 [Compound 76, (S)-(E)-4-[(pyrrolidin-2-yl)carbonyl]-1-{4-[2-(1H-indazol-3-yl)vinyl]benzoyl}piperazine] | 93.9 |  |
| CN1CCC(C(=O)N2CCN(C(=O)c3ccc(/C=C/c4n[nH]c5ccccc45)cc3)CC2)CC1 [Compound 77, (E)-4-[(1-methylpiperidin-4-yl)carbonyl]-1-(4-[2-(1H-indazol-3-yl)vinyl]benzoyl)piperazine] | 96.3 |  |
| NC1CCN(C(=O)c2ccc(/C=C/c3n[nH]c4ccccc34)cc2)CC1 [Compound 78, (E)-1-{4-[2-(1H-indazol-3-yl)vinyl]benzoyl}-4-aminopiperidine] | 95.7 |  |
